Molecular target: T1, Peroxisome proliferator-activated receptor alpha (Homo sapiens, UniProt Q07869)
T1 sequence (Q07869 whole entry): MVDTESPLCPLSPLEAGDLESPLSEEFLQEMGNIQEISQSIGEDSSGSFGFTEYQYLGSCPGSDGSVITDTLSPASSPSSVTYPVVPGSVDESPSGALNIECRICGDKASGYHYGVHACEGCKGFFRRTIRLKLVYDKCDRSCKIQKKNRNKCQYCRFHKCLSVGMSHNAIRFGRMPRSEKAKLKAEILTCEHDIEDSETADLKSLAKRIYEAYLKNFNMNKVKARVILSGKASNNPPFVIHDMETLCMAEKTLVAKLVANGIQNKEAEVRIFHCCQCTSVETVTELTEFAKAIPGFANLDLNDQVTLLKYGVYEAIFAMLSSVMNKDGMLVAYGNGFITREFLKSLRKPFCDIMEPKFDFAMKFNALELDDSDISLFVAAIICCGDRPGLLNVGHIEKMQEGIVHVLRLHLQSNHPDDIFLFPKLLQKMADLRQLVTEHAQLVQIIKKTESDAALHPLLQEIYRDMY
Assay: Agonist activity at PPARalpha (unknown origin)

EC50 | SMILES
40 nM | CC(C)Cc1ccc(-c2nc(COc3ccc(CC(OC(C)C)C(=O)O)cc3)no2)cc1 (configuration not stated)
240 nM | CC(C)OC(Cc1ccc(OCCc2noc(C3CCCCC3)n2)cc1)C(=O)O (configuration not stated)

From ChEMBL document CHEMBL3046495, “CoMFA, ADVANCE CoMFA AND CoMSIA STUDIES ON THE OXADIAZOLE SUBSTITUTED -ISOPROPOXY PHENYLPROPIONIC ACIDS FOR PPAR AGONISTIC ACTIVITY” (Med Chem Res, 2004)
